Patent US10806729B2, “Quinoline derivatives for use in the treatment or prevention of viral infection” (ABIVAX, priority 2015, dated 2020)

Experiments:
[1] = tested on: HIV-1; conditions: human PBMCs, increasing drug pressure
Description: Resistance to Compound 22 was tested on human PBMCs and compared to current therapies. […] Various classes of antiviral agents can affect the life cycle of HIV-1 in different manners. […] The selection of drug resistant mutants in vitro can be readily accomplished by maintaining the virus in a state of sub-optimal growth, regulated by slowly increasing the amount of drug pressure applied. This technique mimics the consequences of drug therapy in patients. Therefore, in this way, novel compounds can be assessed for their selection profile in order to evaluate the likelihood of emergence of HIV-1 drug resistance in future clinical trials. In addition, combinations of drugs can be investigated in the same manner.

[2] = tested on: HIV-1 strain YU2; assay: HIV-1 p24 production in infected monocyte derived macrophages (ELISA); assay type: cell-based; conditions: Human immunodeficiency virus 1, Primary macrophage; primary macrophages infected with Yu-2, at 0.1 μM; read-out: inhibition levels of virus replication (p24)
Excerpt: FIG. 1. Potency of quinoline derivatives to inhibit HIV-1 production in PBMC- and macrophages-infected cells. […] Each point represents 6 donors. B) HIV-1 strain YU2 was used to infect triplicate of monocyte derived-macrophages from different donors in the absence or presence of increasing concentrations of Compound 22. […] Each point represents 8 donors. To generate monocyte derived macrophages (MDMs), monocytes were isolated using CD14 microbeads (catalog no. 130-050-201; Miltenyi) and cultured in X-VIVO10 medium (Lonza) supplemented with GM-CSF 1000 U/ml and M-CSF 100 ng/ml for 6 days. Monocytes were seeded at a cell count of 50,000 cells per well in a 96 well plate. After 6 days medium was replaced with X-VIVO10 w/o Cytokines. After 2 days Macrophages were treated with Compound 22 and/or its N-glucuronide metabolite o/n and next day infected with Yu-2 virus for 6 hrs, washed with PBS and cultured in medium containing the compounds for 12 days. Supernatant for p24 Elisa was collected 2 times a week. Cells were treated with 0.01 μM up to 30 μM and p24 antigen levels were monitored in culture supernatant over a 12 day period. Cell culture supernatant HIV p24 titration was performed by ELISA with Ingen Innotest kit (Ingen Ref 80564) according to the manufacturer's instructions.

SMILES	Time of Selection (weeks) [1]	inhibition at 0.1 µM [2]
Cc1ccnc2c1NC(=O)c1cccnc1N2C1CC1 [Nevirapine, reference compound]	3 weeks	–
O=C(O)[C@H]1O[C@@H](N(c2ccc(OC(F)(F)F)cc2)c2ccc3cccc(Cl)c3n2)[C@H](O)[C@@H](O)[C@@H]1O [N-glucuronide metabolite]	–	≤ 90%
C[C@H](Cn1cnc2c(N)ncnc21)OCP(=O)(O)O [Tenofovir, reference compound]	12 weeks	–
